Assay results as given in patent publication US20250353825A1, “CANNABICYCLOL DERIVATIVES AND PREPARATION METHODS THEREOF” (priority 2023, published 2025).
Values after ≈ are worked out from the molar mass of the structure shown.

How the values were obtained:
U251 = assay: MTS cell viability assay, U251; format: cell-based
Procedure: (§1) Primary viability screening: (1) the synthesized compounds 3a to 13d were respectively dissolved in DMSO to prepare a 40 μg/mL cannabicyclol and cannabicyclol derivative solutions.
(§2) (2) A control group: a 200 μL DMSO solvent.
(§3) (3) The solutions of compounds 3a to 13d were diluted in a twofold gradient to obtain cannabicyclol and cannabicyclol derivative solutions at concentrations of 40 μg/mL, 20 μg/mL, 10 μg/mL, 5 μg/mL, 2.5 μg/mL, 1.25 μg/mL, and 0.625 μg/mL, and 0.3125 μg/mL, respectively.
(§4) (4) Three glioblastoma stem cells (GSC-3, GSC-12, and GSC-18), three pancreatic cancer cell-derived stem cells (PANC-1-CSC, BXPC-3-CSC, and ASPC1-CSC), three liver cancer cell-derived stem cells (HepG2-CSC, MHCC97H-CSC, and SMMC7721-CSC), HEK-293T cells, 16 tumor cells (U251, U87, T98G, PANC1, BXPC3, ASPC1, HepG2, MHCC97H, SMMC7721, PC3, SKOV3, MDA-MB231, A549, HCT116, HEC-1B, MKN28), and differentiated glioblastoma stem cells (GSC-3diff and GSC-12diff) derived from GSC-3 and GSC-12 (all of the cells were provided by the Laboratory of Tumor Animal Model Preparation and Application Research, West China Hospital, Sichuan University) were inoculated into a 96-well plate at a concentration of 2×10^4 cells/well, and 100 μL of culture medium was then added to each well;
(5) 2) HEK-293T, GSC-3diff, GSC-12diff, and the 16 tumor cells were added with DMEM, 10% FBS, and 1% double antibody culture medium. Cancer stem cells (CSCs) were added with serum-free stem cell medium consisting of DMEM/F12, EGF (20 ng/mL), bFGF (20 ng/mL), B27 (1×), and 1% double antibody culture medium.
(6) Inoculated cells were put into a cell culture incubator for 24 hours, and after the cells were well adhered to the wall, the culture medium in the 96-well plate was discarded.
(7) 200 μL cannabicyclol and cannabicyclol derivatives solutions at different concentrations were added to the cultured cells.
(8) The experiment was set up with 3 replicates.
(9) The 96-well plate was placed in a cell culture incubator, and incubation was continued at 37° C. and 5% CO2 for 72 hours. Then, 100 μL of cannabicyclol and cannabicyclol derivative solution per well was discarded (100 μL of DMSO solvent was discarded for the control group), and 20 μL of LMTS (CellTiter AQueous Non-Radioactive Cell Proliferation Assay, #G3581) was mixed and continued to be placed in the cell incubator for 2 hours of incubation.
(§5) (10) The absorbance value at 490 nm was measured on an enzyme labeling apparatus, and the IC50 value was calculated.

ASPC1-CSC = assay: MTS cell viability assay, ASPC1-CSC; format: cell-based; details: Table 6, tumor stem cell, 72 hours; read-out: IC50 against ASPC1-CSC
Procedure: as §1, §2, §3
as §4, with “well; […]” for “well;”
as §5

GSC-3 = assay: Soft agar colony (clone) formation, GSC-3; format: cell-based; details: crystal violet, FIG. 4, compound 3a 0, 5 and 5 [sic] μg/mL
Procedure: […] of low-melting-point agarose was dissolved in 12.5 mL of ddH2O to prepare a 3.2% low-melting-point agarose gel. The low-melting-point agarose gel was sterilized by autoclaving at 121° C. and 0.12 MPa for 20 minutes. After sterilization, the low-melting-point agarose gel was maintained at 60° C. in a drying oven for further use.
1.75 mL of 3.2% sterile low-melting-point agarose gel was taken, 5.25 mL of the corresponding complete medium was added, and the two were mixed thoroughly using a pipette to prepare a base gel at a concentration of 0.8%.
1 mL of the base gel was added to each well of a 6-well plate, ensuring that the base gel evenly covered the bottom of each well. The plate was placed at 4° C. for 5 minutes to allow the gel to solidify. After the gel had fully solidified, the plate was warmed at 37° C. for 5 minutes.
6 cells/cell lines (U251, SMMC7721, GSC-3, GSC-12, SMMC7721-CSC, and HepG2-CSC) were individually digested with 1× trypsin for 3 minutes. The corresponding complete culture medium (same as in the application example 1) was added to terminate the digestion. Cells were centrifuged at 1000 rpm for 3 minutes, and the cells were collected and counted. A total of 5×10^3 cells were added to each well, each group was set up with three replicates. […]

SMMC7721 liver cancer = assay: Mouse liver cancer model (subcutaneous SMMC7721); format: in vivo, mice; details: for tumor volume compared with the control group: 23 days, FIG. 5; for tumor weight compared with the control group: day 23, FIG. 7
Procedure: Establishment of a mouse liver cancer model: 2×10^6 SMMC7721 (containing 30% Matrigel) was subcutaneously injected into the right inguinal region of the mice (NOD/ShiLtJGpt-Prkdc^em26cd52 Il2rg^em26cd22/Gpt(NCG)mic). The model was established when the tumor volume reached 50 mm^3.
According to the weight of mice: in treatment group 1, each mouse was intraperitoneally injected with a CBL solution at 50 mg/kg, and in treatment group 2, each mouse was intraperitoneally injected with a CBL solution at 100 mg/kg. The mice in a control group were injected with an equal volume of a DMSO solvent. The drug was administered once every 2 days, continuing for 23 days. Tumor volume was measured on days 3, 7, 10, 14, 17, 20, and 23. On day 23, the tumor tissue was collected and weighed. The tumor volume changes at different time points are shown in FIG. 5, the tumor tissue collected on day 23 is shown in FIG. 6, and the average tumor weight of different treatment groups is shown in FIG. 7.

[1] = treatment group 1, 50 mg/kg intraperitoneally once every 2 days
[2] = treatment group 2, 100 mg/kg intraperitoneally once every 2 days

CCCCCc1cc(O)c2c(c1)OC1(C)CCC3C1C2C3(C)C (stereo not drawn) [Compound 3a, cannabicyclol]
IC50 (U251; Homo sapiens, U-251, 72 h, read-out: IC50 against U251): > 40 µg/mL
Cell viability in U251 (%) (U251; primary viability screening, 72 hours, MTS, test concentration not stated): 54%
IC50 (ASPC1-CSC): 14.6 µg/mL (≈ 46.3 µM)
colony formation of GSC-3 (GSC-3): significantly inhibited
inhibitory effect on liver cancer, 100 mg/kg compared to 50 mg/kg (SMMC7721 liver cancer; 100 mg/kg versus 50 mg/kg dosage, intraperitoneal): better inhibitory effect
tumor volume compared with the control group (SMMC7721 liver cancer; [1]): significantly inhibited
tumor weight compared with the control group (SMMC7721 liver cancer; [1]): significantly inhibited
tumor volume compared with the control group (SMMC7721 liver cancer; [2]): significantly inhibited
tumor weight compared with the control group (SMMC7721 liver cancer; [2]): significantly inhibited
